Results as given in US20160361391A1, “REDUCTION OF TRAF1 LEVELS COMBINED WITH NUTRIENT STRESS FOR TREATING LYMPHOCYTE-RELATED CANCERS” (THE GOVERNING COUNCIL OF THE UNIVERSITY OF TORONTO, priority 2014, published 2016).

B1: Erwinase: Licensed drug derived from the Asparaginase of Erwinia chrysanthemi; nutrient stress-inducing agent (protein, UniProt P06608 22-348, looked up)
L-asparaginase: ADKLPNIVILATGGTIAGSAATGTQTTGYKAGALGVDTLINAVPEVKKLANVKGEQFSNMASENMTGDVVLKLSQRVNELLARDDVDGVVITHGTDTVEESAYFLHLTVKSDKPVVFVAAMRPATAISADGPMNLLEAVRVAGDKQSRGRGVMVVLNDRIGSARYITKTNASTLDTFKANEEGYLGVIIGNRIYYQNRIDKLHTTRSVFDVRGLTSLPKVDILYGYQDDPEYLYDAAIQHGVKGIVYAGMGAGSVSVRGIAGMRKAMEKGVVVIRSTRTGNGIVPPDEELPGLVSDSLNPAHARILLMLALTRTSDPKVIQEYFHTY

Assays:
Format in all cases: cell-based, human
[1] = system: TRAF1; assay: TRAF1 levels by Western blot after shRNA knockdown
Protocol: Left: RAJI cells were stably transfected with control small hairpin (sh) RNA or with shRNA designed to knockdown expression of TRAF1 (shRNAs obtained from Open Biosystems (TRC library number: TRCN0000056885 sequence: […]) (SEQ ID NO:1)). TRAF1 levels in RAJI expressing shCtrl or with shTRAF1 were analyzed by Western blot. Protein loading was analyzed based on GAPDH levels. Right: TRAF1 levels in B-chronic lymphocytic leukemia (CLL) lines and Daudi CD5+ (a Burkitt's lymphoma with CLL like properties) were determined by Western blot.
Left: Schematic diagram of TRAF1 indicating site of phosphorylation by PKN1 as identified by Kato et al.^29 Middle: RAJI cells were stably transfected with control shRNA (shCtrl), TRAF1 shRNA (shTRAF1) or PKN1 shRNA (shPKN1) (obtained from Open Biosystems (TRC library number: TRCN0000001484 sequence: […] (SEQ ID NO:2)). Right: Daudi cells were transduced with control shRNA (shCTRL), shRNA targeting TRAF1 (shTRAF1) or shRNA targeting PKN1 (shPKN1). Cells were analyzed for levels of TRAF1, tubulin or GAPDH by western blot. “Pool” refers to bulk transfected cell lines without subcloning.
Based on the finding that primary T cells lacking TRAF1 are sensitive to loss of TRAF2 when 4-1 BB signalling is induced during nutrient stress, the role of the reduction of TRAF1 levels combined with nutrient stress on B lymphomas was tested. […]

[2] = system: TRAF2; assay: TRAF2 levels by immunoblot during nutrient stress; details: RAJI cells; for TRAF2 levels during Erwinase treatment: 1 IU/ml Erwinase, up to 6 hrs
Protocol: (B) Wild type (WT), shCtrl or shTRAF1 RAJI cells were treated with 1 IU/ml Erwinase for 1, 3 or 6 hrs and immunoblotted for TRAF2 and TRAF1.
Right: RAJI cells stably expressing shCtrl or shPKN1 were treated with 1 IU/ml Erwinase for 0, 3 or 6 hrs and lysates were immunoblotted for TRAF2, or as a loading control, GAPDH.
To test the effect of lower levels of TRAF1 on the level of TRAF2 in lymphoma, WT and shTRAF1 RAJI cells were incubated under conditions of nutrient stress (low glutamine). […] In order to mimic conditions of nutrient stress in a manner that can be useful therapeutically, the licensed drug Erwinase (described above) was utilized. […] Of note, in contrast to the work with primary cells, the loss of TRAF2 when TRAF1 is limiting occurred without a need to add reagents to specifically engage a TNFR family member, but rather occurs spontaneously upon nutrient stress.

[3] = system: RAJI cells; assay: MTT cell viability / growth assay; details: for cell growth / proliferation with Erwinase (MTT) / tumour growth rate (MTT): RAJI; for cell growth / proliferation with Erwinase (MTT): 1 IU/ml Erwinase; for tumour growth rate (MTT): complete culture medium, no Erwinase
Protocol: MTT reagent was then solubilized with DMSO and absorbance was measured by ELISA plate reader at 560 nm and referenced to absorbance at 620 nm. Data are plotted as fold change relative to untreated shCtrl RAJI cells.
(§1) It was next asked what the effect of reducing TRAF1 and its signalling partner TRAF2 in lymphoma had on cell proliferation and survival. […] To determine whether this effect was due to death of the lymphoma cells, Annexin V and propidium iodide (PI) staining of the lymphomas were analyzed at different times after transfer to Erwinase containing medium. Annexin V binds to phosphatidyl serine, which becomes exposed on the surface of cells as they undergo apoptosis. Then, cells become permeable to propidium iodide upon death. […] The slightly greater effect on cell death of direct TRAF1 knockdown compared to PKN1 knockdown is consistent with the smaller effect of PKN1 knockdown on TRAF1 levels compared to direct TRAF1 knockdown with shTRAF1.
FIG. 7 provides a rationale for a screen for a PKN1 inhibitor that synergizes with Erwinase: In particular, the assay is used to look for inhibitors that act at nanomolar concentration to reduce cell survival. […] Inhibitors that reduce the signal in the MTT assay by at least 3 fold relative to Erwinase alone will be identified as potential PKN1 inhibitors. This initial screen is amenable to a 96 well plate assay in which each drug candidate is tested on control RAJI cells with and without Erwinase as well as shPKN1 RAJI cells with Erwinase. Candidate drugs that lower the signal on control RAJI cells only in the presence but not in the absence of Erwinase, and have no effect on PKN1 knockdown cells treated with Erwinase, represent candidates for kinase inhibitors that act through PKN1 inhibition to reduce TRAF1 levels. The candidates can then be verified by determining the inhibitory effects on TRAF1 levels.

[4] = system: RAJI cells; assay: Annexin V / propidium iodide cell death by flow cytometry, RAJI; details: 1 IU/ml Erwinase
Protocol: RAJI cells stably expressing control shRNA (shCtrl), TRAF1 shRNA (shTRAF1) or PKN1 shRNA (shPKN1) were left untreated or treated with 1 IU/ml Erwinase for the indicated time points. For cells treated with Erwinase for longer than 24 hrs, cell culture media was replaced every 24 hrs and 1 IU/ml Erwinase was added to ensure the continued absence of glutamine. Cells were then stained with Annexin V-FITC (ebioscience) and Propidium Iodide (PI) and then analyzed by flow cytometry (BD LSR Fortessa). The upper right quadrant (Q2) indicates the fraction dead cells.
(§2) (A) Whole cell extracts from RAJI cells treated with control shRNA (shCTRL) or TRAF2 shRNA (shTRAF2) were immunoblotted for TRAF2 or as a loading control, GAPDH. (B) Annexin V staining of RAJI after Erwinase treatment (1 IU/ml; 24 hrs) in shCTRL, shTRAF1 or shTRAF2 cells.
as §1

[5] = system: Chronic lymphocytic leukemia cell line MEC2; assay: Annexin V / propidium iodide cell death by flow cytometry, MEC2; details: MEC2, 1 IU/ml Erwinase, 0, 18, 24 or 42 hrs
Protocol: MEC2 cells were transfected with control shRNA (shCTRL), shTRAF1 or shPKN1 and then were left untreated or treated with 1 IU/ml Erwinase for 0, 18, 24 or 42 hrs. Cell death was measured by flow cytometry for Annexin V and propidium iodide (PI), where double staining for Annexin V and Propidium iodide (PI) is used to indicate cell death.

[6] = system: mTORC1; assay: pS6K / pS6 level as marker of mTORC1 activation; details: RAJI lymphoma cells
Source text: Left: Levels of pS6K in RAJI control cells. Right: Levels of pS6K in RAJI shTRAF1. Upper panels show pS6K, lower panels show GAPDH to control for equal loading. B. Schematic showing link between nutrient stress, mTORC1 and pS6. C. Left: Representative flow cytometry analysis of TRAF1 and phospho-S6 expression in Raji shCTRL and Raji shTraf1 cells. […] FMO is fluorescence minus one control stain. Right: Correlation plot of TRAF1 versus phospho-S6 expression in lymphoma and CLL cell lines (gated on live cells). All flow cytometry is based on gating on live cells (using live/dead staining marker).
In an effort to understand the mechanism of synergy between lowering TRAF1 levels and increased sensitivity to Erwinase, the activity of mTORC1, a key sensor of the nutrient state of the cells, was examined. Nutrient stress inhibits the activation of mTORC1, a key regulator of proliferation, metabolism and cell survival.^35 PhosphoS6K (pS6K), a downstream target of mTORC1, can be used as a marker of mTORC1 activation. […] However, unexpectedly, TRAF1 knockdown cells had lower basal level of pS6K prior to treatment, perhaps explaining the synergistic effect of TRAF1 knockdown with Erwinase treatment (FIG. 11A—compare right to left western blots). […] Further, a correlation between the level of TRAF1 in the cell and the activity of mTORC1 as measured by pS6 levels was shown (FIG. 11C).

[7] = system: Erk and NF-κB activation; assay: Flow cytometry for pERK and phospho P65 subunit of NFkB; details: RAJI knockdown cells versus control sample
Source text: as §2
(§3) TRAF2 knockdown also decreases RAJI survival in the presence of Erwinase (FIG. 14). […] On the Y axis, is indicated knockdown of TRAF2, PKN1, TRAF1 or control sample. The vertical dashed line indicates the peak level of expression in the control sample for comparison with the knockdown cells.

[8] = system: TRAF1; assay: TRAF1 levels by flow cytometry in knockdown RAJI; details: RAJI knockdown cells versus control sample
Source text: as §2, §3

[9] = system: panel of lymphoma and the CLL line MEC2; assay: Erwinase sensitivity versus TRAF1 expression in cell line panel; details: 1 IU/ml Erwinase, 24 hours; lines with medium/hi TRAF1 expression
Protocol: Correlation plot of TRAF1 expression versus Erwinase sensitivity. Cell lines were treated with 1 IU/ml Erwinase for 24 hours and cell death was measured by AnnexinV/PI staining. Erwinase sensitivity is measured as % of cells AnnexinV^+, PI^+ and/or AnnexinV^+/PI^+ cells. Left: Erwinase sensitivity versus TRAF1 expression (measured by flow cytometry, gated on live cells) for a panel of lymphoma and the CLL line MEC2.
PKN1 stabilizes TRAF1 and TRAF1 serine 146, a target of PKN1 is required for TRAF1 stability (see above). As lowering TRAF1 by PKN1 knockdown increases sensitivity to nutrient stress, knockdown of PKN1 with RNA interference or anti-sense approaches, or inhibition of PKN1 using chemical inhibitors could be used to increase sensitivity to nutrient stress. In order to develop this strategy, biomarker needs to be developed to predict which cancers would be susceptible. To this end, TRAF1 protein expression was measured in a panel of human lymphomas and the CLL cell line MEC2 by flow cytometry and these levels were correlated with sensitivity to the nutrient stress-inducing drug Erwinase. […] However, in cells that express TRAF1 above an MFI of 1500, there was a strong correlation between TRAF1 levels and resistance to cell death induced by nutrient stress (FIG. 13). Cancers with these properties are candidates for therapy with PKN1 in combination with nutrient stress.

Molecule	TRAF1 levels ([1]; RAJI and Daudi cells with shRNA to PKN1, versus shCtrl)	TRAF2 levels during Erwinase treatment [2]	cell growth / proliferation with Erwinase (MTT) [3]	tumour growth rate (MTT) [3]	sensitivity to Erwinase induced death (Annexin V/PI) [4]	sensitivity to Erwinase induced death (Annexin V/PI) [5]	TRAF1 levels ([1]; RAJI stably expressing shRNA, versus control treated RAJI)	TRAF2 level under low glutamine ([2]; nutrient stress (low glutamine), versus WT)	level of pS6K / pS6 [6]	constitutive Erk and NF-κB activation [7]	TRAF1 levels (flow cytometry) [8]	impact of Erwinase alone in MTT assay ([3]; control RAJI, 1 IU/ml, 48 hr)	Erwinase sensitivity (% AnnexinV+ and/or PI+ cells) versus TRAF1 expression [9]
shPKN1: shRNA targeting PKN1, sequence CTGATGTGTGAGAAGCGGA (Open Biosystems TRC library)	decreases TRAF1 levels	sensitizes RAJI cells to TRAF2 loss during nutrient stress	sensitizes lymphoma to growth inhibition by Erwinase	no impact on the tumour growth rate	Increases the Sensitivity of RAJI to Erwinase Induced Death	increases the sensitivity of the Chronic lymphocytic leukemia cell line MEC2 to Erwinase induced death							
shTRAF1: shRNA designed to knockdown expression of TRAF1, sequence CGTGTGTTTGAGAACATTG (Open Biosystems TRC library)			sensitizes lymphoma to growth inhibition by Erwinase	no impact on the tumour growth rate	Increases the Sensitivity of RAJI to Erwinase Induced Death	increases the sensitivity of the Chronic lymphocytic leukemia cell line MEC2 to Erwinase induced death	substantially lower levels of TRAF1	TRAF2 was lost	levels of pS6 are lower	reduces constitutive Erk and NF-κB activation			
shTRAF2: shRNA to TRAF2, mature antisense ATGGCGTGGAATCTGCAAGGG					increased susceptibility to Erwinase-mediated nutrient stress					reduces constitutive Erk and NF-κB activation	lowers TRAF1 levels		
B1		significant reduction in TRAF2 levels only when TRAF1 was reduced by shRNA	arrest in cell growth						reduced the level of pS6K			minimal impact	inverse correlation between TRAF1 levels and Erwinase sensitivity
